From article PMC5769417, “Single- and Multiple-Dose Trials to Determine the Pharmacokinetics, Safety, Tolerability, and Sex Effect of Oral Ginsenoside Compound K in Healthy Chinese Volunteers” (Frontiers in Pharmacology, 2018)

Legend:
[1] = Single-dose trial, plasma pharmacokinetics; format: in vivo, human; conditions: single-dose trial, fasting
Procedure: Single-dose pharmacokinetics: The single-dose trial was performed first. […] Drinking before and after medication was prohibited for 2 h, but the amount and time of drinking were not strictly controlled at other times. All subjects had standard lunch and dinner (unified light diet) after medication 4 and 10 h. Single-dose pharmacokinetics: […] We preserved 8 ml specimens into 10 ml centrifuge tubes and stored at −70°C for PK assessment. All samples were preserved at −70°C and analyzed with a LC-MS/MS (API 4000 LC-MS/MS, ABI Company, Foster City, CA, USA) at the Institute of Clinical Pharmacology, Central South University (Changsha, China). […] An aqueous solution of a stable internal standard (IS for CK: digoxin, Shijiaoke Biological Technology Co. Ltd., Beijing, China; IS for PPD: coumarin, Sigma-Aldrich, St. Louis, USA) and 1 M phosphate buffer were added to 0.5 ml of thawed sample, and analytical standards and quality control (QC) samples were prepared in the same matrix. All samples were treated with 2 ml of methyl tert-butyl ether (MTBE, CNW technologies GmbH, Duesseldorf, Germany) to precipitate the bulk of plasma proteins. After mechanical shock by mixing for 10 min and a subsequent centrifugation (4,000 rpm, 4°C, 10 min), 1.4 ml of the supernatant was transferred and blow-dried with nitrogen in a water bath at 40°C. Lastly, the residue was dissolved in 100 μl of mobile phase and then was subjected to a mechanical shock by mixing, and centrifuged. The supernatant was subsequently injected into the column for analysis. […] Accuracy and precision of the assay were determined by evaluating the performance of the assay controls. Over the quantification range, the accuracy of the QC samples varied from 85 to 115% and the intra- and inter-assay imprecision was <15%. PK parameters were derived according to noncompartmental analysis and actual elapsed time from dosing by WinNonlin version 6.1 (Pharsight Corporation, Mountain View, CA, USA). […] The area under the curve (AUC) from time zero to the last time point (AUClast) and the AUC extrapolated to infinity (AUCinf) were calculated using the linear trapezoidal rule. The slope (elimination rate constant, K) of the terminal phase of the plasma concentration-time profile was determined, using a weighting factor of 1, by the method of least squares (log-linear regression of at least three data points). The t1/2 was estimated as (ln2)/K. […] The apparent volume of distribution (V/F) was equal to (CL/F)/K. The mean residence time (MRT) was calculated as the area under the first moments curve (AUMC) divided by AUC. The dose-normalized PK parameters e.g., Cmax/D and AUClast/D, were obtained by dividing each PK result by the administered dose. The cumulative excretion rate was calculated as the amount of unchanged drug in the urine over a time interval divided by the dose and was expressed as thousand points (‰).

[2] = Multiple-dose trial, plasma pharmacokinetics; format: in vivo, human
Procedure: Multiple-dose pharmacokinetics: […] Multiple-dose pharmacokinetics: […] All samples were preserved at −70°C and analyzed with a LC-MS/MS (API 4000 LC-MS/MS, ABI Company, Foster City, CA, USA) at the Institute of Clinical Pharmacology, Central South University (Changsha, China). […] An aqueous solution of a stable internal standard (IS for CK: digoxin, Shijiaoke Biological Technology Co. Ltd., Beijing, China; IS for PPD: coumarin, Sigma-Aldrich, St. Louis, USA) and 1 M phosphate buffer were added to 0.5 ml of thawed sample, and analytical standards and quality control (QC) samples were prepared in the same matrix. All samples were treated with 2 ml of methyl tert-butyl ether (MTBE, CNW technologies GmbH, Duesseldorf, Germany) to precipitate the bulk of plasma proteins. After mechanical shock by mixing for 10 min and a subsequent centrifugation (4,000 rpm, 4°C, 10 min), 1.4 ml of the supernatant was transferred and blow-dried with nitrogen in a water bath at 40°C. Lastly, the residue was dissolved in 100 μl of mobile phase and then was subjected to a mechanical shock by mixing, and centrifuged. The supernatant was subsequently injected into the column for analysis. […] Accuracy and precision of the assay were determined by evaluating the performance of the assay controls. Over the quantification range, the accuracy of the QC samples varied from 85 to 115% and the intra- and inter-assay imprecision was <15%. […] The area under the curve (AUC) from time zero to the last time point (AUClast) and the AUC extrapolated to infinity (AUCinf) were calculated using the linear trapezoidal rule. The slope (elimination rate constant, K) of the terminal phase of the plasma concentration-time profile was determined, using a weighting factor of 1, by the method of least squares (log-linear regression of at least three data points). The t1/2 was estimated as (ln2)/K. […] The apparent volume of distribution (V/F) was equal to (CL/F)/K. The mean residence time (MRT) was calculated as the area under the first moments curve (AUMC) divided by AUC. The dose-normalized PK parameters e.g., Cmax/D and AUClast/D, were obtained by dividing each PK result by the administered dose. The cumulative excretion rate was calculated as the amount of unchanged drug in the urine over a time interval divided by the dose and was expressed as thousand points (‰). On day 15 in the multiple-dose trial, the PK parameters, such as t1/2, CL/F, and V/F at steady state were calculated using the same method as that used for the single-dose trial. In addition, the Tmax at steady state (Tmax,ss), Cmax at steady state (Cmax,ss), and Cmin,ss were obtained from experimental observation after the steady state during the multiple-dose trial. […] The average steady-state drug concentration (Cavg) is calculated as AUCτ/τ, and the fluctuation ratio was calculated as (Cmax,ss − Cmin,ss)/Cavg. The accumulation index was calculated using dosing interval and elimination rate constant as in the following equation: 1/(1 − e^−Kτ).

[3] = 100 mg oral after breakfast, Day 1
[4] = 100 mg qd oral after breakfast, Day 15
[5] = 200 mg oral after breakfast, Day 1
[6] = 200 mg qd oral after breakfast, Day 15
[7] = 400 mg oral after breakfast, Day 1
[8] = 400 mg qd oral after breakfast, Day 15

CC(C)=CCC[C@](C)(O)[C@H]1CC[C@]2(C)[C@@H]1[C@H](O)C[C@@H]1[C@@]3(C)CC[C@H](O)C(C)(C)[C@@H]3CC[C@]12C [20(S)-PPD, 20(S)-protopanaxadiol]
AUClast ([1]; 25 mg oral): 32.4 ± 26.2 ng·h/mL | Cmax ([1]; 25 mg oral): 1.6 ± 1.2 ng/mL | Tmax, median (range) ([1]; 25 mg oral): 12.0 (8.0–24.0) h | AUClast ([1]; 50 mg oral): 43.9 ± 12.0 ng·h/mL | Cmax ([1]; 50 mg oral): 1.8 ± 0.6 ng/mL | Tmax, median (range) ([1]; 50 mg oral): 24.0 (12.0–24.0) h | AUClast ([1]; 100 mg oral): 167.6 ± 125.0 ng·h/mL | Cmax ([1]; 100 mg oral): 6.3 ± 4.2 ng/mL | Tmax, median (range) ([1]; 100 mg oral): 24.0 (12.0–36.0) h | AUClast ([1]; 200 mg oral): 117.8 ± 94.9 ng·h/mL | Cmax ([1]; 200 mg oral): 3.5 ± 2.7 ng/mL | Tmax, median (range) ([1]; 200 mg oral): 24.0 (6.0–36.0) h | AUClast ([1]; 400 mg oral): 157.1 ± 174.6 ng·h/mL | Cmax ([1]; 400 mg oral): 4.8 ± 4.3 ng/mL | Tmax, median (range) ([1]; 400 mg oral): 24.0 (5.0–48.0) h | AUClast ([1]; 600 mg oral): 269.8 ± 251.4 ng·h/mL | Cmax ([1]; 600 mg oral): 9.5 ± 9.8 ng/mL | Tmax, median (range) ([1]; 600 mg oral): 36.0 (24.0–72.0) h | AUClast ([1]; 800 mg oral): 179.1 ± 171.0 ng·h/mL | Cmax ([1]; 800 mg oral): 5.1 ± 5.3 ng/mL | Tmax, median (range) ([1]; 800 mg oral): 30.0 (3.0–72.0) h | AUClast [2, 3]: 60.6 ± 44.9 ng·h/mL | Cmax [2, 3]: 1.8 ± 1.1 ng/mL | Tmax, median (range) [2, 3]: 24.0 (24.0–36.0) h | AUClast [2, 4]: 154.5 ± 81.8 ng·h/mL | Cmax [2, 4]: 5.0 ± 2.5 ng/mL | Tmax, median (range) [2, 4]: 5.5 (0.3–24.0) h | AUClast [2, 5]: 54.1 ± 58.8 ng·h/mL | Cmax [2, 5]: 2.3 ± 3.4 ng/mL | Tmax, median (range) [2, 5]: 7.0 (4.0-48.0) h | AUClast [2, 6]: 170.9 ± 191.0 ng·h/mL | Cmax [2, 6]: 5.7 ± 6.1 ng/mL | Tmax, median (range) [2, 6]: 6.0 (0.3–24.0) h | AUClast [2, 7]: 133.1 ± 127.6 ng·h/mL | Cmax [2, 7]: 4.3 ± 3.6 ng/mL | Tmax, median (range) [2, 7]: 16.0 (3.0–36.0) h | AUClast [2, 8]: 463.1 ± 512.3 ng·h/mL | Cmax [2, 8]: 11.0 ± 10.2 ng/mL | Tmax, median (range) [2, 8]: 5.5 (0.5–8.0) h | concentration of metabolite relative to the parent drug ([2]; Day 1, 100–400 mg CK): 0.08–0.16%
